Our source for the Bliss excess values is the supplement of paper PMC11061612.

Common to all, as to assay: Bliss excess, mean over the matrix (fraction); higher = more synergy
Experiment [1] deals with BxPC-3 (Pancreatic Carcinoma). The method, boiled down:
(§1)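 Cell lines grown in DMEM/F12 or RPMI with 10% FBS were plated in 1536-well plates and held 24 hours at 37°C, 5% CO2 before 72 hours of exposure to two-drug dose matrices, with DMSO typically at 0.2%. CellTiter-Glo 2.0 luminescence gave viability, which was converted to inhibition. Vehicle wells were set to 0 and blank wells to 1. Combination Emax is the second-highest inhibition in the matrix, and Bliss excess is the observed combination effect minus the expected EA + EB − EA·EB, where EA and EB are the single-agent effects.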

Experiment [2] deals with C-33-A (Cervical Carcinoma). An outline of the steps: as §1
Experiment [3] relates to COR-L88 (Small Cell Lung Carcinoma). The method, boiled down:
as §1

The test system of experiment [4] is CPC-N (Small Cell Lung Carcinoma). An outline of the steps:
as §1

A further experiment deals with ES6 (Ewing's Sarcoma). The method, boiled down: as §1
Experiment [5] deals with HPAF-II (Pancreatic Carcinoma). The method, boiled down:
as §1

Another experiment has as its system IST-MEL1 (Melanoma). The method, boiled down: as §1
For the next experiment, the system named is KALS-1 (Glioblastoma). An outline of the steps:
as §1

The subject of experiment [6] is LCLC-103H (Non-Small Cell Lung Carcinoma). An outline of the steps:
as §1

The test system of experiment [7] is LS-1034 (Colorectal Carcinoma). The method, boiled down:
as §1

Experiment [8] deals with MDA-MB-415 (Breast Carcinoma). An outline of the steps: as §1
Experiment [9] concerns MONO-MAC-6 (Acute Myeloid Leukemia). The method, boiled down: as §1
In experiment [10] the test system is MS-1 (Small Cell Lung Carcinoma). The method, boiled down:
as §1

A further experiment concerns NCI-H226 (Mesothelioma). The method, boiled down: as §1
Experiment [11] relates to NCI-H3118 (Head and Neck Carcinoma). An outline of the steps:
as §1

Experiment [12] deals with SCC-4 (Oral Cavity Carcinoma). An outline of the steps:
as §1

The test system of experiment [13] is SK-CO-1 (Colorectal Carcinoma). An outline of the steps:
as §1

The test system of experiment [14] is SKG-IIIa (Cervical Carcinoma). An outline of the steps: as §1
For experiment [15], the system named is SNU-423 (Hepatocellular Carcinoma). The method, boiled down: as §1
The subject of experiment [16] is T84 (Colorectal Carcinoma). An outline of the steps:
as §1

Turning to `Cc1nc(-c2cn3c(n2)-c2ccc(-c4cnn(C(C)(C)C(N)=O)c4)cc2OCC3)n(C(C)C)n1` [Taselisib] + O=C(Nc1ccc2[nH]nc(-c3ccncc3)c2c1)[C@@H]1CCN(CC(=O)N2CCN(c3ccc(-c4ncccn4)cc3)CC2)C1 [SCH772984] (first compound max 10 µM, 7x7, partner max 5 µM), the Bliss excess is 0.133 in experiment [1]; 0.0551 in [2]; 0.004 in experiment [3]; 0.0196 in experiment [4]; -0.0318 in the experiment on ES6 (Ewing's Sarcoma); 0.224 in [5]. The Bliss excess in the experiment with IST-MEL1 (Melanoma) was 0.106; with KALS-1 (Glioblastoma), -0.0253; in experiment [6] it was 0.0056; in experiment [7] it was 0.0307; in experiment [8], -0.0012; in experiment [9] it was 0.0832. Further, the Bliss excess in experiment [10] came to 0.0145; with NCI-H226 (Mesothelioma) it was 0.0164; in experiment [11], 0.0633; in [12], 0.0899; in [13] it was 0.0763; in [14], 0.0751. For the same molecule, the values for the Bliss excess in experiment [15] and in experiment [16] were 0.0656 and 0.072, respectively.

For `O=C(c1cc(Cc2n[nH]c(=O)c3ccccc23)ccc1F)N1CCN(C(=O)C2CC2)CC1` [Olaparib] + Cc1c2c(nn1C)CSCc1cc(n(C)n1)CSc1cc(c3ccccc3c1)OCCCc1c(C(=O)O)n(C)c3c-2c(Cl)ccc13 [AZD5991] (first compound max 10 µM, 7x7, partner max 1 µM), the Bliss excess in [1] is -0.066; in experiment [2], -0.0224; in experiment [3], 0.0223; in [4], -0.0555; with ES6 (Ewing's Sarcoma), -0.0431; in experiment [5], -0.0366. Also, the Bliss excess was -0.0488 with IST-MEL1 (Melanoma); -0.0158 in the experiment on KALS-1 (Glioblastoma); -0.0206 in experiment [6]; -0.0414 in experiment [7]; -0.0838 in [8]; 0.0434 in [9]. The Bliss excess in experiment [10] is -0.0481; in the experiment on NCI-H226 (Mesothelioma), -0.0583; in experiment [11], -0.006; in experiment [12], -0.0491; in experiment [13], -0.0091; in [14], -0.0562. Besides, the Bliss excess is -0.0503 in [15] and -0.0266 in experiment [16].

Consider `CC1(C)CCC(CN2CCN(c3ccc(C(=O)NS(=O)(=O)c4ccc(NCC5CCOCC5)c([N+](=O)[O-])c4)c(Oc4cnc5[nH]ccc5c4)c3)CC2)=C(c2ccc(Cl)cc2)C1` [Venetoclax] + CS(=O)(=O)CCNCc1ccc(-c2ccc3ncnc(Nc4ccc(OCc5cccc(F)c5)c(Cl)c4)c3c2)o1 [Lapatinib] (first compound max 1 µM, 7x7, partner max 10 µM), for which the Bliss excess in [1] is -0.0299; in experiment [2] it was -0.0001; in [3], -0.0146; in experiment [4], -0.019; in the experiment with ES6 (Ewing's Sarcoma), -0.0675; in experiment [5] it was -0.0355. In addition, the Bliss excess in the experiment with IST-MEL1 (Melanoma) was -0.0234; in the experiment on KALS-1 (Glioblastoma) it was -0.0431; in experiment [6] it was -0.0319; in [7], -0.0412; in experiment [8], -0.047; in experiment [9], -0.0371. Further, the Bliss excess in [10] is -0.0021; in the experiment with NCI-H226 (Mesothelioma) it was -0.0355; in experiment [11], -0.014; in [12] it was -0.0231; in experiment [13], 0.0109; in experiment [14], -0.0674. The Bliss excess was -0.0254 in experiment [15] and -0.0151 in experiment [16].

Turning to `C[C@@H]1COCCN1c1cc(C2([S@](C)(=N)=O)CC2)nc(-c2ccnc3[nH]ccc23)n1` [AZD6738] + C1CC(C1)(C(=O)[O-])C(=O)[O-].N.N.[Pt+2] [Carboplatin] (first compound max 10 µM, 7x7, partner max 10 µM), the Bliss excess is -0.0539 in experiment [1]; -0.0043 in experiment [2]; -0.0207 in experiment [3]; -0.0391 in experiment [4]; -0.0116 in the experiment on ES6 (Ewing's Sarcoma); -0.0585 in [5]. In addition, the Bliss excess in the experiment on IST-MEL1 (Melanoma) is -0.0271; with KALS-1 (Glioblastoma), -0.0426; in experiment [6], -0.0447; in experiment [7], -0.0575; in experiment [8], 0.0134; in [9], -0.0075. Also, the Bliss excess in experiment [10] was -0.093; with NCI-H226 (Mesothelioma) it was -0.0383; in experiment [11], -0.0423; in experiment [12], 0; in experiment [13] it was 0.0009; in experiment [14] it was -0.0079. Further, the Bliss excess in experiment [15] was -0.0425; in experiment [16], -0.0041.

Take `O=C(c1cc(Cc2n[nH]c(=O)c3ccccc23)ccc1F)N1CCN(C(=O)C2CC2)CC1` [Olaparib] + CC1(C)CCC(CN2CCN(c3ccc(C(=O)NS(=O)(=O)c4ccc(NCC5CCOCC5)c([N+](=O)[O-])c4)c(Oc4cnc5[nH]ccc5c4)c3)CC2)=C(c2ccc(Cl)cc2)C1 [Venetoclax] (first compound max 10 µM, 7x7, partner max 1 µM): the Bliss excess in experiment [1] is -0.0569; in [2], -0.0389; in [3], 0.0604; in experiment [4] it was -0.0439; in the experiment on ES6 (Ewing's Sarcoma) it was -0.0549; in experiment [5], -0.0183. In addition, the Bliss excess in the experiment with IST-MEL1 (Melanoma) was 0.0186; in the experiment on KALS-1 (Glioblastoma) it was -0.0353; in experiment [6], -0.0212; in [7], -0.0413; in [8] it was -0.064; in experiment [9] it was 0.0368. Further, the Bliss excess was -0.0266 in [10]; -0.0428 in the experiment on NCI-H226 (Mesothelioma); -0.028 in [11]; -0.0455 in [12]; -0.0405 in [13]; -0.0695 in experiment [14]. The figures for the Bliss excess in experiment [15] and in [16] were -0.0472 and -0.0524, respectively.

As for `CN(CCO)CC[C@H](CSc1ccccc1)Nc1ccc(S(=O)(=O)NC(=O)c2ccc(N3CCC([C@@H](O)c4ccccc4-c4ccc(Cl)cc4)CC3)cc2)cc1S(=O)(=O)C(F)(F)F` [AZD4320] + Nc1ccn([C@@H]2O[C@H](CO)[C@@H](O)C2(F)F)c(=O)n1 [Gemcitabine] (first compound max 1 µM, 7x7, partner max 0.3 µM), the Bliss excess in experiment [1] is -0.0248; in experiment [2], 0.0113; in experiment [3], 0.0283; in experiment [4], 0.0415; in the experiment on ES6 (Ewing's Sarcoma) it was 0.0253; in experiment [5], -0.0087. The Bliss excess is 0.134 in the experiment with IST-MEL1 (Melanoma); 0.0063 in the experiment on KALS-1 (Glioblastoma); -0.0122 in experiment [6]; -0.0357 in experiment [7]; 0.0347 in [8]; -0.0237 in experiment [9]. Further, the Bliss excess in experiment [10] was -0.0023; with NCI-H226 (Mesothelioma), -0.0209; in [11] it was -0.0638; in experiment [12], 0.0027; in experiment [13] it was -0.0065; in experiment [14], 0.0259. Moreover, the Bliss excess is 0.0088 in experiment [15] and -0.0434 in experiment [16].

Turning to `Cc1c2c(nn1C)CSCc1cc(n(C)n1)CSc1cc(c3ccccc3c1)OCCCc1c(C(=O)O)n(C)c3c-2c(Cl)ccc13` [AZD5991] + CC(=O)O[C@H]1C(=O)[C@@]2(C)[C@H]([C@H](OC(=O)c3ccccc3)[C@]3(O)C[C@H](OC(=O)[C@H](O)[C@@H](NC(=O)c4ccccc4)c4ccccc4)C(C)=C1C3(C)C)[C@]1(OC(C)=O)CO[C@@H]1C[C@@H]2O [Paclitaxel] (first compound max 1 µM, 7x7, partner max 3 µM), the Bliss excess was 0.0075 in [1]; -0.0095 in experiment [2]; 0.0486 in [3]; -0.0539 in experiment [4]; 0.005 in the experiment with ES6 (Ewing's Sarcoma); 0.0356 in experiment [5]. In addition, the Bliss excess was -0.0215 with IST-MEL1 (Melanoma); 0.0314 in the experiment with KALS-1 (Glioblastoma); -0.0118 in [6]; -0.0473 in [7]; 0.0268 in [8]; 0.0152 in experiment [9]. Moreover, the Bliss excess in experiment [10] was -0.0135; in the experiment with NCI-H226 (Mesothelioma), -0.008; in experiment [11] it was 0.0079; in experiment [12], -0.0628; in experiment [13], -0.052; in experiment [14], -0.036. Further, the Bliss excess in experiment [15] was -0.0344; in experiment [16] it was -0.0379.
